Results reported in ChEMBL document CHEMBL3352676, “Terpenoids from the root bark of Pterolobium macropterum” (J Nat Prod, 2014).
Calls of active or inactive are those of the source. No cut-off for these calls is given here.

Legend:
[1] = Cytotoxicity against human KKU-M156 cells assessed as growth inhibition after 72 hrs by sulforhodamine B assay; conditions: KKU-M156, 72 h
[2] = Cytotoxicity against human KKU-M139 cells assessed as growth inhibition after 72 hrs by sulforhodamine B assay; conditions: KKU-M139, 72 h
[3] = Cytotoxicity against human KKU-M213 cells assessed as growth inhibition after 72 hrs by sulforhodamine B assay; conditions: KKU-M213, 72 h
Vero [4] = assay: Cytotoxicity against african green monkey Vero cells assessed as growth inhibition after 72 hrs by sulforhodamine B assay; conditions: Chlorocebus sabaeus
Vero [5] = assay: Cytotoxicity against african green monkey Vero cells assessed as growth inhibition at > 200 uM after 72 hrs by sulforhodamine B assay; conditions: Chlorocebus sabaeus
KKU-M139 = assay: Cytotoxicity against human KKU-M139 cells assessed as growth inhibition at > 200 uM after 72 hrs by sulforhodamine B assay
KKU-M156 = assay: Cytotoxicity against human KKU-M156 cells assessed as growth inhibition at > 200 uM after 72 hrs by sulforhodamine B assay
KKU-M213 = assay: Cytotoxicity against human KKU-M213 cells assessed as growth inhibition at > 200 uM after 72 hrs by sulforhodamine B assay

SMILES | IC50 [1] [µM] | IC50 [2] [µM] | IC50 [3] [µM] | IC50 (Vero [4]) [µM] | Activity (Vero [5]) | inhibition (KKU-M139) | inhibition (KKU-M156) | inhibition (KKU-M213)
COC(=O)[C@]1(C)CCC[C@]2(C)c3cc4occc4c(C)c3CC[C@@H]12 | 80.1 | 70.6 | 144 | 57.6 |  |  |  | 
C[C@H]1C2=CC(=O)O[C@]2(O)C[C@H]2[C@H]1CC[C@@H]1[C@]2(C)CCC[C@@]1(C)C(=O)O [DIPTERYXIC ACID] | 82.9 | 77.3 | 68.9 | 97.1 |  |  |  | 
COC(=O)C1(C(=O)OC)CCC[C@]2(C)c3cc4occc4c(C)c3CC[C@@H]12 | 83.6 | 80.2 | 44.2 | 65.7 |  |  |  | 
COC(=O)[C@]1(C)CCC[C@@]2(C)[C@H]1CC[C@H]1C(=O)c3ccoc3C[C@@H]12 | 148 | 23.2 | 34.8 |  | Non-toxic |  |  | 
COC(=O)[C@]1(C)CCC[C@]2(C)c3cc4occc4c(C)c3C[C@@H](O)[C@@H]12 | 113 | 122 | 105 |  | Non-toxic |  |  | 
COC(=O)[C@]1(C)CCC[C@@]2(C)[C@H]1CC[C@H]1[C@@H](C)C3=CC(=O)O[C@]3(O)C[C@@H]12 | 61.2 | 76.3 | 44 | 59.2 |  |  |  | 
CC1=C2CC3CC[C@@H](C)C2(CC1=O)C3(C)C (stereo partly specified) |  |  | 138 |  | Non-toxic | inactive | inactive | 
COC(=O)[C@]1(C)CCC[C@@]2(C)[C@H]1CC[C@H]1C(C)=CC(=O)C[C@@H]12 |  | 197 | 66.8 | 50.5 |  |  | inactive | 
CC(C)[C@@H]1CC[C@@H](C)[C@@H]2CCC(C=O)=C[C@@]12O |  |  | 88.8 |  | Non-toxic | inactive | inactive | 
COC(=O)[C@]1(C)CCC[C@@]2(C)[C@H]1CC[C@H]1[C@@H](C)C3=CC(=O)OC3=C[C@@H]12 |  |  | 47.6 | 94.4 |  | inactive | inactive | 
COC(=O)[C@]1(C)CC[C@@H](OC(C)=O)[C@]2(C)c3cc4occc4c(C)c3C[C@@H](O)[C@H]21 | 115 | 155 | 98.2 |  | Non-toxic |  |  | 
Cc1c2ccncc2c(C)c2c1[nH]c1ccccc12 [ELLIPTECINE] | 37.9 | 18.3 | 6.58 | 15.5 |  |  |  | 
CC(C)[C@]1(O)CC[C@@H](C)[C@@H]2CCC(=O)C=C21 | 139 | 148 |  | 154 |  |  |  | inactive
CC(C)[C@@H]1CC[C@@H](C)[C@@H]2CCC(=O)C=C12 | 88.8 | 70.8 | 87.3 | 154 |  |  |  | 
